Source: patent publication US9221800B2, “Isoxazole treatments for diabetes” (The Board of Regents of the University of Texas System, priority 2011, dated 2015)

Tests used:
Assay type in all cases: cell-based, mouse
HDAC = HDAC activity in nuclear extracts of treated MIN6 cells; conditions: 24 h treatment, TSA 2 μM positive control (FIG. 4B)
Method: (§1) The histone acetyl transferase and deacetylase activities were measured in 50 μg of nuclear protein using the HAT and HDAC activity colorimetric assay kits from Biovision Biotechnology according to manufacturer's recommendations.

MIN6 cells = assay: Immunoblotting of MIN6 whole cell lysates; conditions: MIN6 pretreated with inhibitors 16 h (FIG. 4A); nifedipine in combination with the chelating agent BAPTA
Method: FIGS. 2[…]-1) activates insulin expression and improves β cell function in MIN6 cells. (FIG. 2A) Dose-response relationship of MIN6 cells treated with 5-80 μM Isx for 24 h or DMSO (0.08%-similar to the highest concentration of Isx). Whole cell lysates (40 μg) were subjected to immunoblotting using antibodies against BETA2NeuroD1, MafA, PDX-1, pERK1/2 (pT183/[…]), acetylated histones […] and ACH3K9 and total histone H3. (FIG. 2B) Quantitative RT-PCR of murine insulin1 and insulin2 gene expression in MIN6 cells treated with Isx for 24 h as in FIG. 2A. […] (FIG. 2D) Insulin content measured by ELISA in MIN6 cells treated with Isx for 24 or 48 h. (FIG. 2E) GSIS induced by glucose, amino acids (AA) and Exendin-4 (Ex-4) singly or in combination in MIN6 cells pretreated with Isx for 48 h. FIGS. 4[…]-1) is a HAT activator. (FIG. 4A) Immunoblots of acetylated histones in MIN6 cells pretreated with the indicated inhibitors for 16 h and then treated with vehicle or Isx. (FIGS. 4B-C) HDAC (FIG. 4B) and HAT (FIG. 4C) activities in 50 μg of nuclear extract protein from MIN6 cells treated with Isx or DMSO for 24 h. Trichostatin A (TSA; 2 μM) was added at as a positive control. HeLa nuclear extract also was included as a positive control. […] Statistical analysis was performed using Student's t test as in FIGS. 1A-E. *P<0.05; **P<0.01. (FIG. 4G) Simplified view of the actions of Isx. FIG. 6. Time course of […]-1) treatment in MIN6 cells. Immunoblotting of whole cell extracts from MIN6 cells grown for 24 h in complete DMEM containing […] and treated with 20 μM Isx for from 15 min to 24 h. The control (0 min) was treated with DMSO for 24 h. MIN6 cells were cultured in DMEM (Gibco), containing 25 mM glucose, 10% fetal bovine serum, 10 mM Hepes pH 7.4, 10.2 mM L-glutamine, […] sodium pyruvate, 2.5 mM β-mercaptoethanol, 100 U/ml penicillin and 100 μg/ml streptomycin at 37° C. in 10% CO2. Human islets were obtained from the ICR Basic Science Islet Distribution and from the University of Alabama, Birmingham Islet Resource Facility and were cultured in RPMI 1640 with 11 mM glucose for up to 1 year. The medium was changed twice weekly and the islets were subcultured when they reached 90% confluence. For Isx treatments, cells were incubated in medium containing either Isx or the equivalent volume of DMSO vehicle (0.04%). To measure GSIS, cells were placed in Krebs-Ringer bicarbonate/Hepes containing 0.1% bovine serum albumin and 2 mM glucose for 2 h, and stimulated for 15 min with 20 mM glucose, a 1× amino-acid mixture (concentrations as in DMEM), or 50 nM Exendin-4.

HAT = HAT activity in nuclear extracts of treated MIN6 cells; conditions: MIN6 cells expressing p300; 10 μM U0126
Method: as §1

trichostatin A [reference compound]
HDAC activity in MIN6 cells (HDAC): inhibited

N#CC(=C(/N)Sc1ccccc1N)/C(C#N)=C(\N)Sc1ccccc1N [U0126, reference compound]
effect on Isx-induced acetylation of H4 (MIN6 cells): inhibited
effect on acetylation of H3 on lysines 9 and 14 induced by Isx (MIN6 cells): little effect
effect on the Isx-induced increase in HAT activity (HAT): inhibited

COC[C@H]1OC(=O)c2coc3c2[C@@]1(C)C1=C(C3=O)[C@@H]2CCC(=O)[C@@]2(C)C[C@H]1OC(C)=O [wortmannin, reference compound]
effect on Isx-induced acetylation of H4 (MIN6 cells): no effect
effect on acetylation of H3 on lysines 9 and 14 induced by Isx (MIN6 cells): no effect

O=C(NOC[C@H](O)CO)c1ccc(F)c(F)c1Nc1ccc(I)cc1F [PD325901, reference compound]
effect on Isx-induced acetylation of H4 (MIN6 cells): inhibited
effect on acetylation of H3 on lysines 9 and 14 induced by Isx (MIN6 cells): little effect
